For this assay, the target named is T1, GLP-1R (Homo sapiens, UniProt P43220).
T1 construct: host or cells: CRE-bla CHO-K1
Put plainly: EC20 GLP-1(9-36) PAM cAMP Assay: dose response of compound in the presence of fixed concentration of GLP-1(9-36). It counts as cell-based. The conditions noted are these: GLP-1R CRE-bla CHO-K1 cells, in presence of fixed concentration of GLP-1(9-36), 30 min at 37° C. The procedure, abridged: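 GLP-1R CRE-bla CHO-K1 cells in HBSS/10 mM Hepes/0.1% BSA, pH 7.4, with IBMX were given a 12-point compound dose-response plus a fixed EC20 level of GLP-1(9-36) for 30 min at 37° C. cAMP was measured by luminescence, converted via a standard curve, and EC50 and Emax were fitted by non-linear regression.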

T1 sequence (P43220 24-463): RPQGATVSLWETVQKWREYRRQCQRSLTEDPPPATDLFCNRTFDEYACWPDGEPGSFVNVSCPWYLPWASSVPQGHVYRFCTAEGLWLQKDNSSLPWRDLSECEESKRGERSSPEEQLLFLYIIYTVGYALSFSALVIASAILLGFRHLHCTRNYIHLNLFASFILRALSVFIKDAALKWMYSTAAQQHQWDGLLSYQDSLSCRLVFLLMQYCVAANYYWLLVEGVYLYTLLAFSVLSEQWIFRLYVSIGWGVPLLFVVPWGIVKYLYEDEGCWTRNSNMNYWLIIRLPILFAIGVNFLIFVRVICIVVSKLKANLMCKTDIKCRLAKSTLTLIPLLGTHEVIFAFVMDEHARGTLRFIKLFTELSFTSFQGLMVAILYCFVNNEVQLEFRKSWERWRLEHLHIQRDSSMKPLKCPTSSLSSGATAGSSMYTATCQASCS
T1 sequence (P01275 100-127 partner limits assumed): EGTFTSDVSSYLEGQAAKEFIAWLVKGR

For the compound `CCO[C@H]1CC[C@@H](C2CC=C(c3cnc(-c4ccc(C[C@H](NC(=O)c5ccc(C(C)(C)C)s5)C(=O)N5CC(C(=O)O)C5)cc4)nc3)CC2)CC1` (some centres unmarked) [Compound 83], the EC50 is less than 500 nM. The figure for `CCCC1CCC(C2CC=C(c3cnc(-c4ccc(C[C@H](NC(=O)c5ccc(C(C)(C)C)s5)C(=O)N[C@H](Cc5cnc[nH]5)C(=O)O)cc4)nc3)CC2)CC1` (some centres unmarked) [Compound 78] is 500 to 2500 nM.

For orientation: EC50 means the concentration giving half of the maximal effect.

Source of the values: patent US9474755B2, “GLP-1 receptor modulators” (Receptos, Inc., priority 2014, dated 2016).
